Eleven compounds from ChEMBL document CHEMBL1201862, “PubChem BioAssay data set” (2004) can be followed below.

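All cell lines were grown in 96-well plates and treated with compound for 48 hours. Here, GI50 denotes the concentration required for 50% inhibition of growth.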 Activity calls are given as the source filed them. Cut-off read from the data, not from the text of the source: active = GI50 up to about 1.1 µM and inactive = higher.

Among the test systems are NCI-H226; 786-0; SF-268; HOP-62; NCI/ADR-RES; OVCAR-5; NCI-H522; U-251; COLO 205; OVCAR-3; HCT-15; RPMI-8226; HCT-116; Malme-3M; CAKI-1; SK-MEL-5; UO-31; ACHN; NCI-H23; K562.
Holding throughout (assay): NCI anticancer screen, dose series, 48 h

`COc1ccc(/C=C2/C(=O)C(c3ccccc3)N(c3ccccc3)C2=O)cc1OC` (centres undefined): the GI50 in the test on NCI-H226, with 786-0, in the test with SF-268, with HOP-62, in the test with NCI/ADR-RES and with OVCAR-5 was > 10 µM (inactive) each time. Moreover, the GI50 in the test on NCI-H522 is > 10 µM (inactive); in the test with U-251, > 10 µM (inactive); in the test on COLO 205 it was > 10 µM (inactive); in the test on OVCAR-3 it was > 10 µM (inactive); in the test on HCT-15, over 10 µM; in the test with RPMI-8226 it was > 10 µM (inactive). In addition, the GI50 was > 10 µM (inactive) in the test on HCT-116; 1.42 µM (inactive) in the test on Malme-3M; > 10 µM (inactive) in the test with CAKI-1; 0.168 µM (active) in the test on SK-MEL-5; > 10 µM (inactive) in the test on UO-31; > 10 µM (inactive) with ACHN. For the same compound, in the test on NCI-H23, the GI50 is > 10 µM (inactive).

With `N=C(N)NS(=O)(=O)c1ccc(NCc2cccc3c(=O)c4ccc(Cl)cc4oc23)cc1`, the GI50 in the test on NCI-H226 was > 25 µM (inactive); in the test on 786-0 it was 9.1 µM (inactive); with SF-268, 4.33 µM (inactive); in the test with HOP-62 it was > 10.2 µM (inactive); in the test with NCI/ADR-RES it was 7.8 µM (inactive); in the test with OVCAR-5, > 10.1 µM (inactive). The GI50 is 5.22 µM (inactive) with U-251; > 11.6 µM (inactive) with COLO 205; > 8.47 µM (inactive) in the test with OVCAR-3; 4.93 µM with HCT-15; 4.61 µM (inactive) in the test on RPMI-8226; 2.99 µM (inactive) in the test with HCT-116. Moreover, the GI50 with Malme-3M is 4.59 µM (inactive); in the test with CAKI-1 it was 8.53 µM (inactive); in the test on SK-MEL-5, 9.4 µM (inactive); in the test on UO-31, 5.41 µM (inactive); in the test with ACHN, 7.6 µM (inactive); in the test with NCI-H23, 8.55 µM (inactive). For the same compound, in the test on K562, the GI50 is 2.84 µM (inactive).

On to `CC1=C/C(=N/N2C(=O)/C(=C/c3ccc(Cl)cc3)N=C2c2ccccc2)CC(C)(C)C1`, for which the GI50 in the test on NCI-H226 is 90.2 µM (inactive); in the test with 786-0, 57 µM (inactive); in the test with SF-268, 73.3 µM (inactive); with HOP-62, 54.2 µM (inactive); in the test on NCI/ADR-RES, 60.7 µM (inactive); with OVCAR-5, > 100 µM (inactive). For the same compound, the GI50 in the test on NCI-H522 was 30 µM (inactive); in the test on U-251 it was 21.5 µM (inactive); with COLO 205, > 100 µM (inactive); with HCT-15, over 100 µM; in the test with RPMI-8226 it was 20.9 µM (inactive); in the test with HCT-116, 91.8 µM (inactive). The GI50 is > 100 µM (inactive) in the test with Malme-3M; > 100 µM (inactive) with CAKI-1; 35.7 µM (inactive) in the test with SK-MEL-5; > 100 µM (inactive) in the test with UO-31; > 100 µM (inactive) in the test on ACHN; > 100 µM (inactive) in the test with NCI-H23. For the same compound, the GI50 in the test on K562 is 66.4 µM (inactive).

With `Cn1c(=O)c2c(nc3[nH]c(=O)c(Br)cn32)n(C)c1=O`, the GI50 in the test on NCI-H226, in the test with 786-0, with SF-268, in the test with HOP-62, with NCI/ADR-RES and with OVCAR-5 was > 100 µM (inactive) throughout. In addition, the GI50 with NCI-H522 is > 100 µM (inactive); with U-251, > 100 µM (inactive); in the test on COLO 205, > 100 µM (inactive); in the test on OVCAR-3, > 100 µM (inactive); in the test with HCT-15, over 100 µM; in the test with RPMI-8226, > 100 µM (inactive). Also, the GI50 in the test on HCT-116, with CAKI-1, in the test with SK-MEL-5, with UO-31, in the test with ACHN and in the test on NCI-H23 was > 100 µM (inactive) in each case. The GI50 with K562 is > 100 µM (inactive).

Consider `O=C1c2cc(CCl)sc2C(=O)c2ccsc21`, for which the GI50 in the test with NCI-H226 is 1.69 µM (inactive); in the test on 786-0, 1.53 µM (inactive); in the test with SF-268, 0.195 µM (active); in the test on NCI/ADR-RES, 0.2 µM (active); in the test on OVCAR-5 it was 1.85 µM (inactive); with NCI-H522, 0.422 µM (active). Also, the GI50 in the test with U-251 is 0.333 µM (active); with COLO 205 it was 1.37 µM (inactive); in the test on OVCAR-3 it was 0.207 µM (active); in the test with HCT-15, 0.393 µM; in the test on RPMI-8226 it was 0.184 µM (active); in the test on HCT-116, 0.189 µM (active). Moreover, the GI50 in the test on Malme-3M is 0.0387 µM (active); in the test with CAKI-1, 1.72 µM (inactive); in the test on SK-MEL-5 it was 0.0416 µM (active); in the test on UO-31 it was 0.301 µM (active); in the test on ACHN it was 0.327 µM (active); with NCI-H23, 0.0618 µM (active). For the same compound, the GI50 in the test on K562 was 0.158 µM (active).

As for `Oc1ccc(/C=C/c2cc(O)cc3c2C(c2cc(O)cc(O)c2)C(c2ccc(O)c(O)c2)O3)cc1` (centres undefined), the GI50 was 26 µM (inactive) in the test on NCI-H226; 41.8 µM (inactive) with 786-0; 30.6 µM (inactive) with SF-268; 35.9 µM (inactive) in the test on HOP-62; 31.8 µM (inactive) with NCI/ADR-RES; 35.6 µM (inactive) with OVCAR-5. Also, the GI50 in the test with NCI-H522 is 27 µM (inactive); in the test with U-251, 31 µM (inactive); with COLO 205, 19.5 µM (inactive); in the test with OVCAR-3 it was 27.8 µM (inactive); in the test with HCT-15, 20 µM; with RPMI-8226, 13.5 µM (inactive). Besides, the GI50 was 35.9 µM (inactive) with HCT-116; 26.7 µM (inactive) in the test on Malme-3M; 31.7 µM (inactive) in the test on CAKI-1; 17.2 µM (inactive) with SK-MEL-5; 30.9 µM (inactive) with UO-31; 15 µM (inactive) with ACHN. The GI50 with NCI-H23 is 18.8 µM (inactive).

In the case of `COC(=O)CCc1cc(OC)c2c(c1)[C@H](C(=O)OC)[C@@H](c1ccc(O)c(OC)c1)O2`, the GI50 in the test with NCI-H226 is > 100 µM (inactive); in the test on 786-0, 46.3 µM (inactive); with SF-268 it was 52.6 µM (inactive); in the test on HOP-62 it was 77.1 µM (inactive); in the test on NCI/ADR-RES, 40.9 µM (inactive); with OVCAR-5 it was > 100 µM (inactive). The GI50 was 38.3 µM (inactive) with NCI-H522; 38.4 µM (inactive) in the test with U-251; 41.2 µM (inactive) with COLO 205; 47.2 µM (inactive) in the test with OVCAR-3; 32.7 µM with HCT-15; 17.6 µM (inactive) in the test with RPMI-8226. Besides, the GI50 is 35.5 µM (inactive) in the test on HCT-116; 29.9 µM (inactive) with Malme-3M; 35 µM (inactive) in the test with SK-MEL-5; 52.1 µM (inactive) in the test with UO-31; 86.5 µM (inactive) in the test on ACHN; 38.5 µM (inactive) in the test on NCI-H23. Also, the GI50 in the test on K562 is 13.4 µM (inactive).

Regarding `NC(CNO)C(=O)O` (centres undefined), the GI50 in the test with NCI-H226, with 786-0, in the test with SF-268, in the test on HOP-62, with NCI/ADR-RES and with OVCAR-5 was > 100 µM (inactive) in each case. For the same compound, the GI50 was > 100 µM (inactive) with NCI-H522; > 100 µM (inactive) in the test with U-251; > 100 µM (inactive) in the test with COLO 205; > 100 µM (inactive) with OVCAR-3; over 100 µM with HCT-15; > 100 µM (inactive) in the test on RPMI-8226. For the same compound, the GI50 in the test with HCT-116, with Malme-3M, in the test on CAKI-1, in the test on SK-MEL-5, in the test on UO-31 and in the test on ACHN was > 100 µM (inactive) throughout. The GI50 in the test with NCI-H23 was > 100 µM (inactive).

Consider `O=[N+]([O-])c1ccc(N/N=C/CC(O)(C(F)(F)F)C(F)(F)F)c([N+](=O)[O-])c1`, for which the GI50 with NCI-H226 is 3.72 µM (inactive); with 786-0, 5.04 µM (inactive); in the test on SF-268, 4.26 µM (inactive); in the test on HOP-62 it was 4.17 µM (inactive); with NCI/ADR-RES, 3.68 µM (inactive); with NCI-H522 it was 3.21 µM (inactive). In addition, the GI50 in the test on U-251 is 3.48 µM (inactive); with COLO 205, 3.67 µM (inactive); in the test on OVCAR-3 it was 2.8 µM (inactive); in the test with HCT-15, 3.01 µM; in the test on RPMI-8226, 2.76 µM (inactive); in the test with HCT-116 it was 3.03 µM (inactive). Moreover, the GI50 is 4.97 µM (inactive) in the test on Malme-3M; 3.15 µM (inactive) with CAKI-1; 4.55 µM (inactive) with SK-MEL-5; 3.06 µM (inactive) in the test on UO-31; 3.52 µM (inactive) in the test with ACHN; 2.77 µM (inactive) in the test on NCI-H23. Further, the GI50 in the test with K562 is 3.55 µM (inactive).

`CN(c1cn(C2CC[C@@H](CO)O2)c(=O)[nH]c1=O)C1CCCCC1` (some centres undefined): the GI50 with NCI-H226, in the test with 786-0, with SF-268, with HOP-62, in the test on NCI/ADR-RES and with OVCAR-5 was > 100 µM (inactive) in each case. Further, the GI50 was > 100 µM (inactive) in the test on NCI-H522; > 100 µM (inactive) in the test with U-251; > 100 µM (inactive) with COLO 205; > 100 µM (inactive) in the test on OVCAR-3; over 100 µM in the test on HCT-15; > 100 µM (inactive) in the test on RPMI-8226. For the same compound, the GI50 in the test on HCT-116, with Malme-3M, with SK-MEL-5, with UO-31, in the test on ACHN and in the test on NCI-H23 was > 100 µM (inactive) throughout. In the test with K562, the GI50 is > 100 µM (inactive).

On to `COC(=O)C1(Cc2ccccc2)Cc2c(C)ccc(C)c2C1=O` (centres undefined), for which the GI50 in the test with NCI-H226 is 21.1 µM (inactive); in the test with 786-0, 37.5 µM (inactive); in the test on SF-268, 39.6 µM (inactive); in the test with HOP-62, 56.9 µM (inactive); in the test with NCI/ADR-RES, 28.1 µM (inactive); in the test on OVCAR-5 it was 69.5 µM (inactive). Further, the GI50 in the test with NCI-H522 was 19.2 µM (inactive); in the test on U-251, 30 µM (inactive); in the test on COLO 205, 12.4 µM (inactive); with OVCAR-3, 29.2 µM (inactive); with HCT-15, 31 µM; with RPMI-8226, 29 µM (inactive). In addition, the GI50 in the test on HCT-116 is 19.8 µM (inactive); with Malme-3M, 21.4 µM (inactive); in the test with SK-MEL-5, 11.3 µM (inactive); in the test on UO-31, 10.8 µM (inactive); with ACHN it was 26.9 µM (inactive); in the test on NCI-H23, 24.2 µM (inactive). For the same compound, the GI50 in the test on K562 was 30.5 µM (inactive).
